Measurements published in patent US10273453B2, “Method for stem cell differentiation in vivo by delivery of morphogenes with mesoporous silica and corresponding pharmaceutical active ingredients” (Nanologica AB, priority 2010, dated 2019).

Tested on: bNCSCs
Test: in vitro differentiation assay of bNCSCs
Type: cell-based, mouse
Details: bNCSC cultures
Description: bNCSCs were isolated in a semiclonal fashion from EGFP embryos on embryonic day (E)11, as described previously (Hjerling-Leffler J, Marmigére F, Heglind M, et al. The boundary cap: a source of neural crest stem cells that generate multiple sensory neuron subtypes. Development 2005; 132:2623-32). Briefly, the DRGs along with boundary caps were mechanically separated from the isolated spinal cord and mechano-enzymatically dissociated using Collagenase/Dispase (1 mg/ml) and DNase (0.5 mg/ml) for 30 minutes at room temperature. Cells were plated at 0.5-1×10^5 cells/cm^2 in N2 medium containing B27 (Gibco, Grand Island, N.Y., www.invitrogen.com) as well as EGF and basic fibroblast growth factor (R&D Systems, Minneapolis, www.rndsystems.com; 20 ng/ml, respectively). […]
The AMS were added to the cultures and the time-window for their presence before dissolving in the culture medium was established. We also analyzed their contact with the stem cells. […] After staining 10 photographs were taken from each slide and the ratios of neurons and glial cells were calculated in all types of experiments. We also calculated the neurite length per cell as a measure of the level of neuronal differentiation (Kozlova E N. Differentiation and migration of astrocytes in the spinal cord following dorsal root injury in the adult rat. Eur J Neurosci 2003; 17:782-90).

## CC1=C(/C=C/C(C)=C/C=C/C(C)=C/C(=O)O)C(C)(C)CCC1 [RA, retinoic acid]
  differentiation of neurons based on neurite lengths, increase compared to non-treated neurospheres: up to 37%
  neuron/glia ratio, increase compared to neurospheres-alone: 3.4 times
